In patent US7977317B2, “Compositions and methods for modulating blood-brain barrier transport” (Raptor Pharmaceutical Inc., priority 2001, dated 2011):

Key:
RBE4 cells = experiment: Competition of [125I]-p97 binding on rat brain endothelial cells (RBE4); settings: competitor 10 micromolar, 2 hrs at 4° C. (FIG. 4)
Protocol: FIG. 4. Binding of p97 on rat brain endothelial cells. Binding p97 was performed with RBE4 that were pre-incubated 2 hrs in Ringer-Hepes. For the binding experiments, cells in 24-well microplates were incubated for 2 h at 4° C. in Ringer/Hepes in the presence of [^125I]-p97 (25 nM) and 10 micromolar concentrations of cold-p97, transferrin or lactoferin, respectively. At the end of the incubation, the cells were gently washed at 4° C. three times with 4 ml of cold-PBS. RBE4 cells were then lysed with Triton X-100 and the associated radioactivity of with cell lysates was determined.
RBE4 cells were grown in monolayers in 24 wells plastic tissue culture flasks at 37° C. under 5% CO2 in minimum essential medium Alpha and Ham's F10 (1:1) supplemented with 10% heat inactivated fetal bovine serum. For p97 binding experiments, RBE4 cells were pre-incubated at 37° C. for 2 hrs in Ringer/Hepes. ^125I-p97 in 200 μl of Ringer/Hepes was added to RBE4 cells for 2 hrs at 4° C. in the presence or absence of high concentration of cold-p97, human holo-transferrin or human lactoferrin. After the incubation, the cells were washed 4 times with PBS and the ^125I-p97 associated with the cells was measured.

human brain capillaries = experiment: Accumulation/uptake of [125I]-p97 in isolated human brain capillaries; type: binding
Protocol: FIG. 5. Accumulation of p97 in human brain capillaries. Accumulation of [^125I]-p97 was measured at 37° C. for 1 h in isolated human brain capillaries (100 μg/assay). The incubation medium contained [^125I]-p97 and a final concentration of 100 nM p97 in Ringer/Hepes solution. The accumulation of [^125I]-p97 was performed in the presence or absence of 5 μm cold-p97, holo-transferrin or lactoferrin. […] The suspension was filtered under vacuum through a […] pore size Millipore filter. The filter was rinsed with 8 ml of stop solution, and the radioactivity was counted. Nonspecific binding of the radioactivity to the capillaries was determined by the addition of the ice-cold stop solution to the capillaries before adding the incubation medium. This value was subtracted from accumulation values obtained following an 1 h incubation. The results were expressed as ng of [^125I]-p97 accumulated per μg of brain capillaries.
FIG. 16 illustrates the identification of a p97 receptor according to ligand specificity. FIG. 16a, Uptake of [^125I]-p97 into human brain capillaries. The uptake of [^125I]-p97 at 100 nM (control) into isolated human brain capillaries was measured for 1 h at 37° C. in the presence of a 50-fold molar excess of unlabelled p97, human holo-transferrin or human lactoferrin. (*[…] Student's t-test (n=5); FIG. 16b, Effect of RAP on [^125I]-p97 transcytosis across BBCEC monolayers. Apical-to-basal transport of [^125I]-p97 was measured in the presence (closed circles) or absence (open circles) of RAP (25 μg/ml) (n=5); FIG. 16c, Inhibition of bovine [^125I]-lactoferrin transport by p97. Transcytosis of bovine [^125I]-lactoferrin (50 nM) was measured in the presence (closed circles) or absence (open circles) of unlabelled p97 (5 μM) at 37° C. (n=3).
A. Isolation of human brain capillaries. Capillaries of the blood-brain barrier were isolated from human brain cortex by a procedure previously described by Dallaire, et al., J. Biol. Chem., 267:22323-22327 (1992) with slight modifications. Human brains were obtained post-mortem. The brain was cleared of meninges, superficial large blood vessels and choroid plexus. All the following procedures were performed at 4° C. The cerebral cortex was homogenized in 5 volumes of Ringer/Hepes solution with a Polytron (Brinkman Instruments, Rexdale, Ontario, Canada). The homogenate was mixed with an equal volume of Dextran T-70 (27 g in 100 ml of Ringer/Hepes). The suspension was centrifuged at 25,000 g for 10 min. The pellet was resuspended in 30 ml of Ringer/Hepes and passed through a 250 μm nylon mesh screen. […]
B. p97 accumulation in human brain capillaries. […] Accumulation of [^125I]-p97 was measured at 37° C. for 1 h in isolated human brain capillaries (100 μg/assay). […]

Inhibition of [125I]-p97 binding/accumulation in human brain capillaries (human brain capillaries; competitor 5 micromolar, 100 nM p97, 1 h at 37° C. (FIG. 5)): no significant competition | Competition with p97 for receptor binding in human brain capillaries, repeat experiment (human brain capillaries; performed identically to FIG. 5 (FIG. 6)): not
Substance: transferrin: transferrin (Tf), iron-binding serum protein used as comparator and competitor
Inhibition of [125I]-p97 binding to RBE4 cells (RBE4 cells): does not
